We go through three molecules from patent US9353072B2, “Antimicrobial substituted thiazoles and methods of use” (Purdue Research Foundation, priority 2012, dated 2016).

The subject of one data set is MRSA USA1000. In words: MIC broth microdilution, MRSA USA1000. In kind it is cell-based. Conditions: Staphylococcus aureus, Table 2, read-out: Minimum Inhibitory Concentration. The procedure:
(§1) Determination of minimum inhibitory concentration (MIC). The MICs of the lead thiazole compound (compound 1a) and nine derivatives tested against all 18 MRSA strains were determined, in triplicate samples, using the broth microdilution method in accordance with the recommendations contained in the CLSI guidelines.
On the technique in general: In broth dilution the organism is exposed to a series of concentrations in liquid medium.

Data set [1] concerns MRSA ATCC 700699 (NRS1, VISA). In words: MIC/MBC broth microdilution, NRS1 (ATCC 700699). In kind it is cell-based. As to conditions: Staphylococcus aureus; Table 2; MRSA ATCC 700699; read-out: Minimum Inhibitory Concentration. The method, boiled down: (§2)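 Compounds were tested in triplicate samples against each MRSA strain, and the MIC was then read by broth microdilution as recommended by CLSI.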

For another data set, the system named is VISA LIM 3 (NRS37). In words: MIC/MBC broth microdilution, NRS37 (VISA LIM 3). The data set is classed as cell-based. Conditions: Staphylococcus aureus; Table 2; VISA LIM 3; read-out: Minimum Inhibitory Concentration. In a few lines: as §2
The subject of the next data set is MRSA USA500 (NRS385). In words: MIC/MBC broth microdilution, NRS385 (USA500). In kind it is cell-based. Conditions: Staphylococcus aureus; Table 2; MRSA USA500; read-out: Minimum Inhibitory Concentration. In a few lines: as §2
For data set [2], the system named is murine macrophage cells (J774.A1). The data set is described as follows: In vitro cytotoxicity analysis, MTS assay. As to conditions: 16 μM, 24 hours. In kind it is cell-based. The procedure:
In vitro cytotoxicity analysis: Compounds were assayed at concentrations of 2 μM, 4 μM, 8 μM, and 16 μM against a macrophage cell line (J774.A1) to determine the potential toxic effect in vitro. Murine macrophage cells were cultured in Dulbeco's Modified Eagle Medium (Sigma-Aldrich, St. Louis, Mo., USA) with 10% Fetal Bovine Serum (USA Scientific, Inc.) at 37° C. with 5% CO2. Controls received DMSO alone at a concentration equal to that in drug-treated cell samples. The cells were incubated with the compounds in a 96-Well Plate at 37° C. and 5.0% CO2 for 24 hours prior to addition of the assay reagent MTS 3-(4,5-dimethylthiazol-2-yl)-5-(3-carboxymethoxyphenyl)-2-(4-sulfophenyl)-2H-tetrazolium) (Promega, Madison, Wis., USA). The reagent measures the succinate dehydrogenase mitochondrial activity as an indicator of cell viability and proliferation. Corrected absorbance readings (actual absorbance readings for each treatment subtracted from background absorbance) were taken using a kinetic ELISA microplate reader (Molecular Devices, Sunnyvale, Calif., USA). The quantity of viable cells after treatment with each compound was expressed as a percentage of the control, DMSO.

The test system of the next data set is MRSA USA100. The data set is described as follows: MIC broth microdilution, MRSA USA100. As to conditions: Staphylococcus aureus; Table 2; MRSA USA100; read-out: Minimum Inhibitory Concentration. The data set is classed as cell-based. The procedure: as §1
The next data set has as its system MRSA USA200. In words: MIC broth microdilution, MRSA USA200. In kind it is cell-based. As to conditions: Staphylococcus aureus; Table 2; MRSA USA200; read-out: Minimum Inhibitory Concentration. The procedure:
as §1

Another data set concerns NRS107. In words: MIC/MBC broth microdilution, NRS107. The data set is classed as cell-based. Conditions: Staphylococcus aureus, Table 2, read-out: Minimum Inhibitory Concentration. The method, boiled down:
as §2

For another data set, the system named is VRSA (VRS10). The data set is described as follows: MIC/MBC broth microdilution, VRSA (VRS10). The data set is classed as cell-based, Staphylococcus aureus. Conditions: Staphylococcus aureus; Table 2; VRSA; read-out: Minimum Inhibitory Concentration. In a few lines: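 Values are minimum inhibitory concentrations obtained by the broth microdilution method under CLSI recommendations. Testing was run in triplicate.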

Another data set has as its system MRSA NRS384 (USA300). The data set is described as follows: MIC/MBC broth microdilution, NRS384 (USA300). In kind it is cell-based. As to conditions: Staphylococcus aureus; Table 2; MRSA USA300; read-out: Minimum Inhibitory Concentration. The method, boiled down:
as §2

In another data set the test system is MRSA USA700. The data set is described as follows: MIC broth microdilution, MRSA USA700. The data set is classed as cell-based. As to conditions: Staphylococcus aureus, Table 2, read-out: Minimum Inhibitory Concentration. The procedure:
as §1

Another data set has as its system MRSA USA400 (NRS123). In words: MIC/MBC broth microdilution, NRS123 (USA400). The data set is classed as cell-based. Conditions: Staphylococcus aureus; Table 2; MRSA USA400; read-out: Minimum Inhibitory Concentration. The method, boiled down:
as §2

The subject of the next data set is NRS194. In words: MIC/MBC broth microdilution, NRS194. In kind it is cell-based. Conditions: Staphylococcus aureus, Table 2, read-out: Minimum Inhibitory Concentration. In a few lines:
as §2

In the next data set the test system is MRSA USA1100. In words: MIC broth microdilution, MRSA USA1100. In kind it is cell-based. Conditions: Staphylococcus aureus, Table 2, read-out: Minimum Inhibitory Concentration. The procedure: as §1
The subject of a further data set is NRS108. The data set is described as follows: MIC broth microdilution, NRS108. In kind it is cell-based. Conditions: Staphylococcus aureus, Table 2, read-out: Minimum Inhibitory Concentration. The procedure: as §1
Data set [3] has as its system 18 different strains of MRSA and VRSA. In words: MIC broth microdilution, panel of 18 MRSA and VRSA strains (summary statements). As to conditions: relative to lead compound 1a; number of strains as stated in the sentence. In kind it is cell-based, Staphylococcus aureus. The procedure: as §1
For another data set, the system named is MRSA (USA300). The data set is described as follows: Time-kill assay. In kind it is cell-based, Staphylococcus aureus. Conditions: 3.0×MIC. On the procedure:
Time-kill assay. […] Viable CFU/mL was determined by serial dilution and plating on trypticase soy agar (TSA) (Becton, Dickinson and Company, Sparks, Md., USA) plates after 0, 2, 4, 6, 8, 10, and 12 hours of incubation at 37° C. to identify the time required to reduce the bacterial cell count by 3-log10.

Values after ≈ are worked out from the molar mass of the structure shown. “Also recorded” adds a separate entry of the source.

Consider `CCCCCCCc1ccc(-c2nc(C)c(/C(C)=N/NC(=N)N)s2)cc1` [Compound 1e], for which the MIC was determined as 3 µg/mL (≈ 8.07 µM) in the data set on MRSA USA1000; 0.7 µg/mL (≈ 1.88 µM) in data set [1]; 0.7 µg/mL (≈ 1.88 µM) with VISA LIM 3 (NRS37); 3 µg/mL (≈ 8.07 µM) in the data set with MRSA USA500 (NRS385); 1.5 µg/mL (≈ 4.04 µM) in the data set with MRSA USA100; 1.5 µg/mL (≈ 4.04 µM) with MRSA USA200. Moreover, the MIC with NRS107 amounted to 0.7 µg/mL (≈ 1.88 µM); in the data set with VRSA (VRS10) it was 3 µg/mL (≈ 8.07 µM); with MRSA NRS384 (USA300) it was 3 µg/mL (≈ 8.07 µM); in the data set with MRSA USA700, 3 µg/mL (≈ 8.07 µM). In [2], the “toxicity toward murine macrophage cells” value is “exhibited toxicity; also recorded: toxic”.

In the case of `C/C(=N\NC(=N)N)c1sc(-c2ccc(-c3ccccc3)cc2)nc1C` [Compound 12, 2-{1-[2-([1,1′-Biphenyl]-4-yl)-4-methylthiazol-5-yl]ethylidene}hydrazinecarboximid-amide], the MIC turned out to be 0.6 µg/mL (≈ 1.72 µM) in data set [1]; 0.6 µg/mL (≈ 1.72 µM) in the data set with MRSA USA400 (NRS123); 1.2 µg/mL (≈ 3.43 µM) in the data set on NRS194; 1.2 µg/mL (≈ 3.43 µM) in the data set on MRSA USA500 (NRS385); 0.6 µg/mL (≈ 1.72 µM) with MRSA USA1100; 2.4 µg/mL (≈ 6.87 µM) with NRS108. The MIC is 2.4 µg/mL (≈ 6.87 µM) in the data set with MRSA USA100, 1.2 µg/mL (≈ 3.43 µM) in the data set with VRSA (VRS10), 1.2 µg/mL (≈ 3.43 µM) in the data set on MRSA NRS384 (USA300) and 0.6 µg/mL (≈ 1.72 µM) with MRSA USA700. Besides, the “toxicity toward murine macrophage cells” value in data set [2] was “none were observed to be toxic”. For the same molecule, the “improvement in the MIC value relative to the lead compound” value in data set [3] is reported as “two- to four-fold improvement”.

On to `C/C(=N\NC(=N)N)c1sc(-c2ccc(C3CCCCC3)cc2)nc1C` [Compound 8, 2-{1-[2-(4-Cyclohexylphenyl)-4-methylthiazol-5-yl]ethylidene}hydrazinecarboximid-amide], for which the MIC stood at 0.7 µg/mL (≈ 1.97 µM) in data set [1]; 0.7 µg/mL (≈ 1.97 µM) with MRSA USA400 (NRS123); 0.4 µg/mL (≈ 1.13 µM) in the data set on VISA LIM 3 (NRS37); 0.7 µg/mL (≈ 1.97 µM) in the data set on MRSA USA500 (NRS385); 0.7 µg/mL (≈ 1.97 µM) with MRSA USA1100; 1.5 µg/mL (≈ 4.22 µM) with MRSA USA200. Besides, the MIC in the data set with NRS107 and in the data set with MRSA NRS384 (USA300) was 0.7 µg/mL (≈ 1.97 µM) in each case. The “bactericidal effect in time-kill assay” value in the data set with MRSA (USA300) (12 hour incubation at 37° C.) is given as “bactericidal”. Moreover, the “time to eliminate MRSA completely (reduce CFU to zero)” value in the data set with MRSA (USA300) (MRSA (USA300)) was “six hours”. Also, in data set [2], the “toxicity toward murine macrophage cells” value is listed as “none were observed to be toxic”. For the same molecule, the “improvement in the MIC value relative to the lead compound” value in data set [3] was “two- to four-fold improvement”.
